A word on the IC50: it is the midpoint of a concentration-inhibition curve.

The source made the active and inactive calls. No cut-off for these calls is given here.

In one assay the test system is Vero. Kind of assay: Inhibition of helicase activity of West Nile virus NTPase/helicase expressed in Vero E6 cells using RNA substrate. It is filed as cell-based.
Another assay deals with Dengue virus. Kind of assay: Inhibition of helicase activity of Dengue virus NTPase/helicase expressed in Escherichia coli using RNA substrate.
Assay [1] can be described thus: Inhibition of helicase activity of West Nile virus NTPase/helicase expressed in Vero E6 cells using DNA substrate. In kind it is cell-based.
Assay [2] is described as follows: Inhibition of helicase activity of Dengue virus NTPase/helicase expressed in Escherichia coli using DNA substrate.
The test system of the next assay is Hepacivirus hominis. Kind of assay: Inhibition of helicase activity of Hepatitis C virus NTPase/helicase expressed in Escherichia coli using RNA substrate.
The test system of assay [3] is Japanese encephalitis virus. Kind of assay: Inhibition of helicase activity of Japanese encephalitis virus NTPase/helicase expressed in Escherichia coli using RNA substrate.
The nature of assay [4]: Inhibition of helicase activity of Japanese encephalitis virus NTPase/helicase expressed in Escherichia coli using DNA substrate.
Assay [5] is described as follows: Inhibition of helicase activity of Hepatitis C virus NTPase/helicase expressed in Escherichia coli using DNA substrate. Also noted: species or system Hepacivirus hominis.

Regarding `NC(=O)c1ncn([C@@H]2O[C@H](CO)[C@@H](O)[C@H]2O)c1C1N=C(N)NC(N)=N1`, the outcome (in the assay with Vero; in the assay with Dengue virus; in the assay on Hepacivirus hominis; in assay [3]) was inactive. Also, the IC50 in assay [1] is 23 µM; in assay [2] it was above 430 µM; in assay [4] it was above 500 µM; in assay [5], 37 µM.
